The values that follow come from patent publication US12077555B2, “STAT degraders and uses thereof” (Kymera Therapeutics, Inc., priority 2019, dated 2024).

The experiment has as its target STAT3 (Homo sapiens, UniProt P40763). Briefly: Quantitation of STAT3 degradation in A549 cells by Western blot. In kind it is cell-based. On the set-up: expressed in transfected cells; host or cells: A549. How it is done:
Degradation of total cellular STAT3 protein in A549 was quantitatively measured using SDS-PAGE and Western blot analysis. A549 cells (5×10^5 cells/well, 2 mL) were seeded into 6-well plates and were incubated in the incubator under 5% CO2 overnight to reach ˜80% confluency. The next day, the culture medium was changed with 1 ml fresh media. Then, 1 mL of media containing 2× compound solution was added into the well to make the final concentration of 30 μM, 10 μM, 3 μM, 1 μM, 0.3 μM and 0 μM (DMSO). The media was thoroughly mixed and incubated for 24 hours at 37° C. under 5% CO2. Then, the culture media was removed from the assay plates and the cells were washed with ice-cold PBS twice. To prepare cell lysates, 200 ul pre-chilled RIPA lysis buffer (Boston BioProducts BP-115D) with protease/phosphatase inhibitor (Roche 05892791001/Roche 04906837001) was added directly into the well to lyse the cells for 20 minutes on ice. The cell lysates were then transferred to centrifuge tubes. Insoluble part of lysates was removed by centrifuging the lysates at 13000 rpm for 20 minutes. The supernatant was then collected and mixed with 5× loading buffer (Beyotime Bio P0015) to make the final samples for SDS-PAGE analysis. The samples were heated at 100° C. for 10 minutes and cool to room temperature before centrifuging at 13000 rpm for 20 minutes. To analyze the samples by SDS-PAGE, 10 ul samples were loaded onto SDS-PAGE gel (Novex, WG1403BOX) and the SDS-PAGE gel was run for 20 minutes at 80 V, then at 120 V for 1.5 hours. The SDS-PAGE gel was then transferred to nitrocellulose membrane using the wet-transfer method at 250 mA for 1.5 hours. The membrane was then blocked with LI-COR blocking buffer (LI-COR, 927-50000) for 1 hour and was probed with primary antibody (mouse anti-STAT3 (124H6) (CST #91395) 1:2000 or mouse anti-beta-Actin (8H10D10) (CST #3700) 1:10000) at 4° C. overnight. The membrane was then washed three times with TBST buffer and probed with secondary antibody (anti-mouse IgG (LI-COR, 926-68070), 1:5000) for 1 hour at room temperature. The membrane was then scanned on a LI-COR Odyssey instrument and was quantified using Image Studio Version 5.2. Concentration at 50% degradation (DC50) was calculated by fitting dose dependent degradation data using a sigmoidal equation using GraphPad Prism Version 8.0.
(In western blotting, separated proteins are transferred to a membrane and probed.)

[1] abbreviates: read-out: A549 DC50, 24 hours, tested up to 30 μM or 10 μM.

Where two headings read alike, the source gives them in different places.

The term DC50 denotes the midpoint of the concentration-degradation curve.

STAT3, sequence (P40763 whole entry): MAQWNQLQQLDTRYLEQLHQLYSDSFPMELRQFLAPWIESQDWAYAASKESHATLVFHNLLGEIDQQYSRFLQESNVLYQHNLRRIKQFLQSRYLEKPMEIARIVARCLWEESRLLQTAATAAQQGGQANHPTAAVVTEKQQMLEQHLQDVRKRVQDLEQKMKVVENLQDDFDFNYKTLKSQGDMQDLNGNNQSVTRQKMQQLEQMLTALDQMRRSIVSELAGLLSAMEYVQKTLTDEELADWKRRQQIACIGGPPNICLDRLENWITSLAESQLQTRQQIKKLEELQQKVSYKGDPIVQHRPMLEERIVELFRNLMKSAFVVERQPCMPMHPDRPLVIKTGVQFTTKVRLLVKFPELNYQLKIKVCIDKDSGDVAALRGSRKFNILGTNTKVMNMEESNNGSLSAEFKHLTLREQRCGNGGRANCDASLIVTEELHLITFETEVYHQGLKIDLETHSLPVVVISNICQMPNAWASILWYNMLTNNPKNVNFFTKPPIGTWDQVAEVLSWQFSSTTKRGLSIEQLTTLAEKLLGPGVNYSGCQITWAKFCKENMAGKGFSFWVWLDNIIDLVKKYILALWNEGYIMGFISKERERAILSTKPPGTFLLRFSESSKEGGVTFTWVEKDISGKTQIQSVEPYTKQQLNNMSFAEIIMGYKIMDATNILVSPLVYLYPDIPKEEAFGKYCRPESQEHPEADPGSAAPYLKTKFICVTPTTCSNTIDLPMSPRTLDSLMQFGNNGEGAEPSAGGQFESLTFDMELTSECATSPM

In the case of `Cn1c(=O)n(C2CCC(=O)NC2=O)c2ccc(C#CCCCCCC(=O)N3CC[C@H]4CC[C@@H](C(=O)N[C@@H](CCC(N)=O)C(=O)NC(c5ccccc5)c5ccccc5)N4C(=O)[C@@H](NC(=O)c4cc5cc(C(=O)P(=O)(O)O)ccc5[nH]4)C3)cc21` (stereo partly drawn) [Compound I-104, 2-[[(5S,8S,10aR)-8-[[(1S)-3-carbamoyl-1-(diphenylmethylcarbamoyl)propyl]carbamoyl]-3-[8-[1-(2,6-dioxopiperidin-3-yl)-3-methyl-2-oxo-1,3-benzodiazol-5-yl]oct-7-ynoyl]-6-oxo-octahydropyrrolo[1,2-a][1,5]diazocin-5-yl]carbamoyl]-1H-indole-5-carbonylphosphonic acid], the 50% degradation concentration (DC50) under setting [1] is below 30 µM.

In the case of `CCCC[C@H](NC(=O)/C=C(\C)c1ccc(C(F)(F)P(=O)(OCOC(=O)C(C)(C)C)OCOC(=O)C(C)(C)C)cc1)C(=O)N1C[C@H]2C[C@H]2[C@H]1C(=O)N[C@@H](CCC(N)=O)[C@@H](C)OCc1ccc(CCCNC(=O)COCCOCCCc2ccc3c(c2)n(C)c(=O)n3C2CCC(=O)NC2=O)cc1` (stereo partly drawn) [Compound I-58, [([4-[(1E)-1-[[(2S)-1-[(1R,2S,5S)-2-[[(3S,4R)-1-carbamoyl-4-[(4-[3-[2-(2-[3-[1-(2,6-dioxopiperidin-3-yl)-3-methyl-2-oxo-1,3-benzodiazol-5-yl]propoxy]ethoxy)acetamido]propyl]phenyl)methoxy]pentan-3-yl]carbamoyl]-3-azabicyclo[3.1.0]hexan-3-yl]-1-oxohexan-2-yl]carbamoyl]prop-1-en-2-yl]phenyl]difluoromethyl([(2,2-dimethylpropanoyl)oxy]methoxy)phosphoryl)oxy]methyl 2,2-dimethylpropanoate], under setting [1], the half-maximal degradation concentration (DC50) is above 30 µM.

Turning to `C/C(=C\C(=O)N[C@H]1CCc2cccc3c2N(C1=O)[C@H](C(=O)N[C@@H](CCC(N)=O)[C@@H](C)OCc1ccc(CCCOCCOCCCc2ccc4c(c2)n(C)c(=O)n4C2CCC(=O)NC2=O)cc1)C3)c1ccc(C(F)(F)P(=O)(OCOC(=O)C(C)(C)C)OCOC(=O)C(C)(C)C)cc1` (stereo partly drawn) [Compound I-54], the DC50 under setting [1] was above 30 µM.

In the case of `C/C(=C\C(=O)N[C@H]1CCc2cccc3c2N(C1=O)[C@H](C(=O)NC(CCC(N)=O)[C@@H](C)OCc1ccc(CCCOCCOCC(=O)N[C@H](C(=O)N2C[C@H](O)C[C@H]2C(=O)NCc2ccc(-c4scnc4C)cc2)C(C)(C)C)cc1)C3)c1ccc(C(F)(F)P(=O)(OCOC(=O)C(C)(C)C)OCOC(=O)C(C)(C)C)cc1` (stereo partly drawn) [Compound I-37], the DC50 under setting [1] was above 10 µM.

In the case of `C/C(=C\C(=O)N[C@H]1CCc2cccc3c2N(C1=O)[C@H](C(=O)N[C@@H](CCC(N)=O)[C@@H](C)OCc1ccc(CCOCC(=O)N[C@H](C(=O)N2C[C@H](O)C[C@H]2C(=O)NCc2ccc(-c4scnc4C)cc2)C(C)(C)C)cc1)C3)c1ccc(C(F)(F)P(=O)(OCOC(=O)C(C)(C)C)OCOC(=O)C(C)(C)C)cc1` [Compound I-13], the DC50 (24 hours, tested up to 30 μM or 10 μM, read-out: A549 DC50) is below 30 µM.

With `C/C(=C\C(=O)N[C@H]1CCc2cccc3c2N(C1=O)[C@H](C(=O)N[C@@H](CCC(N)=O)[C@@H](C)OCc1ccc(CCCOCc2cccc4c2n(C)c(=O)n4C2CCC(=O)NC2=O)cc1)C3)c1ccc(C(F)(F)P(=O)(OCOC(=O)C(C)(C)C)OCOC(=O)C(C)(C)C)cc1` (stereo partly drawn) [Compound I-5, [([4-[(1E)-1-[[(2S,11S)-2-[[(3S,4R)-1-carbamoyl-4-[[4-(3-[[1-(2,6-dioxopiperidin-3-yl)-3-methyl-2-oxo-1,3-benzodiazol-4-yl]methoxy]propyl)phenyl]methoxy]pentan-3-yl]carbamoyl]-12-oxo-1-azatricyclo[6.4.1.0^[4,13]]trideca-4(13),5,7-trien-11-yl]carbamoyl]prop-1-en-2-yl]phenyl]difluoromethyl([(2,2-dimethylpropanoyl)oxy]methoxy)phosphoryl)oxy]methyl 2,2-dimethylpropanoate], the DC50 under setting [1] was above 30 µM.

`C/C(=C\C(=O)N[C@H]1CN(C(=O)CCCCCCCc2ccc3c(c2)n(C)c(=O)n3C2CCC(=O)NC2=O)CC[C@H]2CC[C@@H](C(=O)N[C@@H](CCC(N)=O)C(=O)NC(c3ccccc3)c3ccccc3)N2C1=O)c1ccc(C(F)(F)P(=O)(O)O)cc1` (stereo partly drawn) [Compound I-113, [4-[(1E)-1-[[(5S,8S,10aR)-8-[[(1S)-3-carbamoyl-1-(diphenylmethylcarbamoyl)propyl]carbamoyl]-3-[8-[1-(2,6-dioxopiperidin-3-yl)-3-methyl-2-oxo-1,3-benzodiazol-5-yl]octanoyl]-6-oxo-octahydropyrrolo[1,2-a][1,5]diazocin-5-yl]carbamoyl]prop-1-en-2-yl]phenyl]difluoromethylphosphonic acid]: the DC50 under setting [1] is above 30 µM.

As for `C/C(=C\C(=O)N[C@H]1CCc2cccc3c2N(C1=O)[C@H](C(=O)NC(CCC(N)=O)[C@@H](C)OCc1ccc(CCCOCCCCCOCCCc2cccc4c2n(C)c(=O)n4C2CCC(=O)NC2=O)cc1)C3)c1ccc(C(F)(F)P(=O)(OCOC(=O)C(C)(C)C)OCOC(=O)C(C)(C)C)cc1` (stereo partly drawn) [Compound I-43], the DC50 under setting [1] was above 30 µM.

Regarding `Cn1c(=O)n(C2CCC(=O)NC2=O)c2cccc(CCCCC(=O)N3CC[C@H]4CC[C@@H](C(=O)N[C@@H](CCC(N)=O)C(=O)NC(c5ccccc5)c5ccccc5)N4C(=O)[C@@H](NC(=O)c4cc5cc(C(=O)P(=O)(O)O)ccc5[nH]4)C3)c21` (stereo partly drawn) [Compound I-88, 2-[[(5S,8S,10aR)-8-[[(1S)-3-carbamoyl-1-(diphenylmethylcarbamoyl)propyl]carbamoyl]-3-[5-[1-(2,6-dioxopiperidin-3-yl)-3-methyl-2-oxo-1,3-benzodiazol-4-yl]pentanoyl]-6-oxo-octahydropyrrolo[1,2-a][1,5]diazocin-5-yl]carbamoyl]-1H-indole-5-carbonylphosphonic acid], the half-maximal degradation concentration (DC50) under setting [1] was above 30 µM.

`C/C(=C\C(=O)N[C@H]1CCc2cccc3c2N(C1=O)[C@H](C(=O)N[C@@H](CCC(N)=O)[C@@H](C)OCc1ccc(CCCOCCOCCOCCOCCCc2ccc4c(c2)n(C)c(=O)n4C2CCC(=O)NC2=O)cc1)C3)c1ccc(C(F)(F)P(=O)(OCOC(=O)C(C)(C)C)OCOC(=O)C(C)(C)C)cc1` (stereo partly drawn) [Compound I-60]: the DC50 under setting [1] was above 30 µM.

`C/C(=C\C(=O)N[C@H]1CCc2cccc3c2N(C1=O)[C@H](C(=O)N[C@@H](CCC(N)=O)[C@@H](C)OCc1ccc(CCCOCCOCCOCCOc2cc(-c4scnc4C)ccc2CNC(=O)[C@@H]2C[C@@H](O)CN2C(=O)[C@@H](NC(=O)C2(F)CC2)C(C)(C)C)cc1)C3)c1ccc(C(F)(F)P(=O)(OCOC(=O)C(C)(C)C)OCOC(=O)C(C)(C)C)cc1` [Compound I-17]: under setting [1], the half-maximal degradation concentration (DC50) is above 30 µM.

As for `Cn1c(=O)n(C2CCC(=O)NC2=O)c2ccc(CCCCCCCC(=O)N3CC[C@H]4CC[C@@H](C(=O)N[C@@H](CCC(N)=O)C(=O)NC(c5ccccc5)c5ccccc5)N4C(=O)[C@@H](NC(=O)c4cc5cc(C(=O)P(=O)(O)O)ccc5[nH]4)C3)cc21` (stereo partly drawn) [Compound I-97, 2-[[(5S,8S,10aR)-8-[[(1S)-3-carbamoyl-1-(diphenylmethylcarbamoyl)propyl]carbamoyl]-3-[8-[1-(2,6-dioxopiperidin-3-yl)-3-methyl-2-oxo-1,3-benzodiazol-5-yl]octanoyl]-6-oxo-octahydropyrrolo[1,2-a][1,5]diazocin-5-yl]carbamoyl]-1H-indole-5-carbonylphosphonic acid], the DC50 under setting [1] was below 30 µM.

For the compound `C/C(=C\C(=O)N[C@H]1CCc2cccc3c2N(C1=O)[C@H](C(=O)N[C@@H](CCC(N)=O)[C@@H](C)OCc1ccc(CCCOCCCCCc2cccc4c2n(C)c(=O)n4C2CCC(=O)NC2=O)cc1)C3)c1ccc(C(F)(F)P(=O)(OCOC(=O)C(C)(C)C)OCOC(=O)C(C)(C)C)cc1` (stereo partly drawn) [Compound I-29], the DC50 under setting [1] is above 10 µM.

Take `C/C(=C\C(=O)N[C@H]1CCc2cccc3c2N(C1=O)[C@H](C(=O)N[C@@H](CCC(N)=O)[C@@H](C)OCc1ccc(CCCCc2cccc4c2n(C)c(=O)n4C2CCC(=O)NC2=O)cc1)C3)c1ccc(C(F)(F)P(=O)(OCOC(=O)C(C)(C)C)OCOC(=O)C(C)(C)C)cc1` (stereo partly drawn) [Compound I-3]: under setting [1], the DC50 was above 30 µM.

For `Cc1ncsc1-c1ccc(CNC(=O)[C@@H]2C[C@@H](O)CN2C(=O)[C@@H](NC(=O)CCCC#Cc2ccc(CO[C@H](C)[C@H](CCC(N)=O)NC(=O)[C@@H]3Cc4cccc5c4N3C(=O)[C@@H](NC(=O)c3cc4cc(C(=O)P(=O)(O)O)ccc4[nH]3)CC5)cc2)C(C)(C)C)cc1` [Compound I-86], the half-maximal degradation concentration (DC50) under setting [1] is below 30 µM.
